Measurements taken from ChEMBL document CHEMBL4311993, “Structure-activity relationship study of NPP1 inhibitors based on uracil-N1-(methoxy)ethyl-β-phosphate scaffold” (Eur J Med Chem, 2019).
Calls of active or inactive are those of the source.

Assays:
[1] = biological target: T1, Ectonucleoside triphosphate diphosphohydrolase 1 (Homo sapiens) (UniProt P49961); experiment: Inhibition of human NTPdase-1 expressed in COS7 cell membranes at 100 uM using ATP as substrate preincubated for 3 mins followed by susbtrate addition and measured after 10 mins by malachite green dye based method
T1 sequence (whole entry): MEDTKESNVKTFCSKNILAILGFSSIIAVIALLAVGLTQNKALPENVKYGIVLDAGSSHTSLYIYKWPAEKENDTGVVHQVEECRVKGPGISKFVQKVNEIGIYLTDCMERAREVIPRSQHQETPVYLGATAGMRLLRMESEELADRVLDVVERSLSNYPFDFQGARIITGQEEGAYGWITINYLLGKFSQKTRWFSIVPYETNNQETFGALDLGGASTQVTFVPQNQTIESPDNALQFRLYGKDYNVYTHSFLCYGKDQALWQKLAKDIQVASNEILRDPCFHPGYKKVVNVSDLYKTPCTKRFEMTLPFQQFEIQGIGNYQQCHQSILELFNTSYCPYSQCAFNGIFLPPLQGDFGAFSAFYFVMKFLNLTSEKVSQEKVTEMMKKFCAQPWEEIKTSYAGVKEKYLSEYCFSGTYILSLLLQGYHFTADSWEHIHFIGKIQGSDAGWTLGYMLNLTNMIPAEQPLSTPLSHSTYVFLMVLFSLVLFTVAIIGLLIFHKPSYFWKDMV

[2] = biological target: T2, Ectonucleoside triphosphate diphosphohydrolase 2 (Homo sapiens) (UniProt Q9Y5L3); experiment: Inhibition of human NTPdase-2 expressed in COS7 cell membranes at 100 uM using ATP as substrate preincubated for 3 mins followed by susbtrate addition and measured after 10 mins by malachite green dye based method
T2 sequence (whole entry): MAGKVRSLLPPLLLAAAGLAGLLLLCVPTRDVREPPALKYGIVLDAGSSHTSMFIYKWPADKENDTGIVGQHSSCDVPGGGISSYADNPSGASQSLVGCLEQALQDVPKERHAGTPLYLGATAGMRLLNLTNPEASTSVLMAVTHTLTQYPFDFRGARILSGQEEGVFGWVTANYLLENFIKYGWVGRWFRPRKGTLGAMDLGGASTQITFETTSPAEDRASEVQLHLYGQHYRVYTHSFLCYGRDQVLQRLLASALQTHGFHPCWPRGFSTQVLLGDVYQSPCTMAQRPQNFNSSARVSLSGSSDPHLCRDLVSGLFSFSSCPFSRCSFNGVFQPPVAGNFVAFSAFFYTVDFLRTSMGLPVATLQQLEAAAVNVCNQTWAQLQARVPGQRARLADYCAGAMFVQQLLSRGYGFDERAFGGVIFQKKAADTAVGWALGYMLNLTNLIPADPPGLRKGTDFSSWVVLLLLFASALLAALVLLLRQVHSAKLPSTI

[3] = biological target: T3, Ectonucleoside triphosphate diphosphohydrolase 3 (Homo sapiens) (UniProt O75355); experiment: Inhibition of human NTPdase-3 expressed in COS7 cell membranes at 100 uM using ATP as substrate preincubated for 3 mins followed by susbtrate addition and measured after 10 mins by malachite green dye based method
T3 sequence (whole entry): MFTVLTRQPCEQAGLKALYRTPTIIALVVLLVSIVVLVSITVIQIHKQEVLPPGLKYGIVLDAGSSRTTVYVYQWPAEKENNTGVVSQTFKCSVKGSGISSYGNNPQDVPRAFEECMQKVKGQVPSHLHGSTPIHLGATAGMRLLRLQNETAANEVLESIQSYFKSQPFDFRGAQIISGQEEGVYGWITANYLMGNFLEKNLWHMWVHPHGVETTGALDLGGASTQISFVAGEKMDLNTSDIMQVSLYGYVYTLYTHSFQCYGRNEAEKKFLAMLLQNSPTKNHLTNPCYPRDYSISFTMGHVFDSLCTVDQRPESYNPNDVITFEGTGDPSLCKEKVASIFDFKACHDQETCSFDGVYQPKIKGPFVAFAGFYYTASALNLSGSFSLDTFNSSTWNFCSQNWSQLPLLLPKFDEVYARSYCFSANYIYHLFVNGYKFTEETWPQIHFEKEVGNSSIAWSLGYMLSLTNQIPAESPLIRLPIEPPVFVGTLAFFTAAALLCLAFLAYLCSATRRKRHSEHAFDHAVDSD

[4] = biological target: T4, Ectonucleoside triphosphate diphosphohydrolase 8 (Homo sapiens) (UniProt Q5MY95); experiment: Inhibition of human NTPdase-8 expressed in COS7 cell membranes at 100 uM using ATP as substrate preincubated for 3 mins followed by susbtrate addition and measured after 10 mins by malachite green dye based method
T4 sequence (whole entry): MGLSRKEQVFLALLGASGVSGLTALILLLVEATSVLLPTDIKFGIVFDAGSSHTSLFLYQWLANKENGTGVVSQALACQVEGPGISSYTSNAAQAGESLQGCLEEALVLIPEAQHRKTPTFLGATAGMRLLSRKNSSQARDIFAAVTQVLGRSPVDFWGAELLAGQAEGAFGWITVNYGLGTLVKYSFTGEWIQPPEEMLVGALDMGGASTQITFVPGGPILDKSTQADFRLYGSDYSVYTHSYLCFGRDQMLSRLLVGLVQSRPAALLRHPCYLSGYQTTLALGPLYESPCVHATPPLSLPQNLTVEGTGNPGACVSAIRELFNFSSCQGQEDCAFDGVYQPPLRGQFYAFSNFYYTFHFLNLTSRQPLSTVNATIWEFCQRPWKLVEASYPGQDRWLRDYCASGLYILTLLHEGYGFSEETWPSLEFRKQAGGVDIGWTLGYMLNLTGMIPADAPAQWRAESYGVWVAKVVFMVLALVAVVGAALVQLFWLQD

[5] = biological target: P2Y purinoceptor 4 (Homo sapiens) (UniProt P51582); experiment: Agonist activity at human P2Y4 receptor expressed in AD293 cells assessed as inositol-1-phosphate accumulation at 0.1 to 100 uM; type: functional, cell-based
[6] = biological target: P2Y purinoceptor 4 (Homo sapiens) (UniProt P51582); experiment: Antagonist activity at human P2Y4 receptor expressed in AD293 cells assessed as inhibition of UTP-induced inositol-1-phosphate accumulation at 0.1 to 100 uM; type: functional, cell-based
[7] = biological target: P2Y purinoceptor 6 (Homo sapiens) (UniProt Q15077); experiment: Antagonist activity at human P2Y6 receptor expressed in AD293 cells assessed as inhibition of UDP-induced inositol-1-phosphate accumulation at 0.1 to 100 uM; type: functional, cell-based
Chain of P2Y purinoceptor 6 (Homo sapiens) (Q15077 whole entry): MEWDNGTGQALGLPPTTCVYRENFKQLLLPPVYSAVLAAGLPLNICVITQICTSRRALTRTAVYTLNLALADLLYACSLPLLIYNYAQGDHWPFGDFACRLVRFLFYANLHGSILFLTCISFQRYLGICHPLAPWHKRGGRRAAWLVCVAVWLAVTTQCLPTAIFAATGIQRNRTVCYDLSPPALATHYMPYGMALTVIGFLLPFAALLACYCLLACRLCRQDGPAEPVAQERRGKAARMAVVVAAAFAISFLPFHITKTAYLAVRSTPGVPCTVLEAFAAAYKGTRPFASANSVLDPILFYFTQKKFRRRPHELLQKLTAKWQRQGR

Chain of P2Y purinoceptor 4 (Homo sapiens) (P51582 whole entry): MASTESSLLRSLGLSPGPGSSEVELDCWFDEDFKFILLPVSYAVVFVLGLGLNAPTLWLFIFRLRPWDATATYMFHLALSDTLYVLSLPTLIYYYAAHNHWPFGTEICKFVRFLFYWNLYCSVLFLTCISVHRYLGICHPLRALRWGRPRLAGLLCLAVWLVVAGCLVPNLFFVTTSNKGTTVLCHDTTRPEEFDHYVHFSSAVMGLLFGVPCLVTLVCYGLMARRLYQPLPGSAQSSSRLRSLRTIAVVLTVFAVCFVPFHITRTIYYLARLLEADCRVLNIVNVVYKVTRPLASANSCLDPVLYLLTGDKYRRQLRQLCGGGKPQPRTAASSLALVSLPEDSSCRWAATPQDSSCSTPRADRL

Compound	inhibition call at 100 uM (active/not active) [1]	inhibition [2]	inhibition [3]	Inhibition call (active/not active) [4]	Activity [5]	inhibition [6]	inhibition [7]
O=c1ccn(COCCOP(=O)(O)C(Cl)(Cl)P(=O)(O)O)c(=O)[nH]1	Active	Active	Active	Active	inactive	inactive	inactive
O=c1ccn(COCCO[PH](=O)O)c(=O)[nH]1	inactive	inactive	inactive	inactive	inactive	inactive	inactive
O=c1ccn(COCCOP(=S)(S)OP(=O)(O)CP(=O)(O)O)c(=O)[nH]1 (configuration not stated)	Active	Active	Active	Active	inactive	inactive	inactive
O=c1ccn(COCCOP(=S)(S)OP(=O)(O)C(Cl)(Cl)P(=O)(O)O)c(=O)[nH]1 (configuration not stated)	Active	Active	Active	Active	inactive	inactive	inactive
O=c1ccn(COCCOP(=O)(O)O)c(=O)[nH]1	inactive	inactive	inactive	inactive	inactive	inactive	inactive
O=c1ccn(COCCOP(=O)(O)CP(=O)(O)O)c(=O)[nH]1	Active	Active	Active	Active	inactive	inactive	inactive
